{"source": "patent US12157730B2", "about": "“Heteroaryl derivative, method for producing same, and pharmaceutical composition comprising same as effective component” (VORONOI INC., priority 2019, dated 2024)", "data": [{"target": "T1, Ba/F3 cell EGFR Exon20 ins NPH (Homo sapiens, UniProt P00533, INS773NPH)", "T1 construct": "expressed in transfected cells; host or cells: Ba/F3", "test": "Ba/F3 cell proliferation suppression, EGFR Exon20 ins NPH", "type": "cell-based", "conditions": "GI50 class; Ba/F3 cell line with NPH inserted at Exon20 of EGFR; 72 hours", "how_it_was_run": "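Growth suppression determined as GI50 following 72 h exposure across 12 concentrations up to 50 um, with viability by luminescent ATP assay (CellTiter-Glo).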", "values": [{"smiles": "C=CC(=O)Nc1cc(Nc2cc(N3OCC[C@@H]3c3cc(F)ccc3F)ncn2)c(OC)cc1N1CCC(N2CC3CCC(C2)N3C2CC2)CC1", "note": "[Example 134, N-(2-(4-(8-cyclopropyl-3,8-diazabicyclo[3.2.1]octan-3-yl)piperidine-1-yl)-5-((6-((R)-3-(2,5-difluorophenyl)isoxazolidine-2-yl)pyrimidine-4-yl)amino)-4-methoxyphenyl) acrylamide]", "Ba/F3 (NPH) Activity": "A (GI50 < 50 nM)"}, {"smiles": "C=CC(=O)Nc1cc(Nc2cc(N3OCC[C@@H]3Cc3cc(F)cc(F)c3)ncn2)c(OC)cc1N1CCN(C2CC2)CC1", "note": "[compound 1032, N-(2-(4-cyclopropylpiperazine-1-yl)-5-((6-(S)-(3-(3,5-difluorobenzyl)isoxazolidine-2-yl)pyrimidine-4-yl)amino)-4-methoxyphenyl) acrylamide]", "Ba/F3 (NPH) Activity": "B (50 nM ≤ GI50 < 500 nM)"}, {"smiles": "C#Cc1cccc([C@H]2CCON2c2cc(Nc3cc(NC(=O)C=C)c(N4CCN(C)CC4)cc3OC)ncn2)c1", "note": "[compound 617, N-(5-((6-((R)-3-(3-ethynylphenyl)isoxazolidine-2-yl)pyrimidine-4-yl)amino)-4-methoxy-2-(4-methylpiperazine-1-yl)phenyl)acrylamide]", "Ba/F3 (NPH) Activity": "A (GI50 < 50 nM)"}, {"smiles": "C=CC(=O)Nc1cc(Nc2cc(N3OCC[C@@H]3c3ccc4ccccc4c3)ncn2)c(OC)cc1N1CCC(N2CCN(C3COC3)CC2)CC1", "note": "[Example 200, N-(4-methoxy-5-((6-((R)-3-(naphthalene-2-yl)isoxazolidine-2-yl)pyrimidine-4-yl)amino)-2-(4-(4-(oxetane-3-yl)piperazine-1-yl)piperidine-1-yl)phenyl)acrylamide]", "Ba/F3 (NPH) Activity": "B (50 nM ≤ GI50 < 500 nM)"}, {"smiles": "C=CC(=O)Nc1cc(Nc2cc(N3OCC[C@@H]3c3cccc(Cl)c3F)ncn2)c(OC)cc1N1CCC(N2CCN(CC3CC3)CC2)CC1", "note": "[Example 96, N-(5-((6-((R)-3-(3-chloro-2-fluorophenyl)isoxazolidine-2-yl)pyrimidine-4-yl)amino)-2-(4-(4-(cyclopropylmethyl)piperazine-1-yl)piperidine-1-yl)-4-methoxyphenyl) acrylamide]", "Ba/F3 (NPH) Activity": "A (GI50 < 50 nM)"}, {"smiles": "C=CC(=O)Nc1cc(Nc2cc(N3OCC[C@@H]3c3cc(F)cc(F)c3)ncn2)c(OC)cc1N1CCC(N2CC3(COC3)C2)CC1", "note": "[Example 103, N-(2-(4-(2-oxa-6-azaspiro[3.3]heptane-6-yl)piperidine-1-yl)-5-((6-((R)-3-(3,5-difluorophenyl)isoxazolidine-2-yl)pyrimidine-4-yl)amino)-4-methoxyphenyl) acrylamide]", "Ba/F3 (NPH) Activity": "A (GI50 < 50 nM)"}, {"smiles": "C=CC(=O)Nc1cc(Nc2cc(N3OCC[C@@H]3c3cccc(Cl)c3)ncn2)c(OC)cc1N1CCC(N2CC[C@H](N(C)C)C2)CC1", "note": "[compound 508, N-(5-((6-((R)-3-(3-chlorophenyl)isoxazolidine-2-yl)pyrimidine-4-yl)amino)-2-(4-((S)-3-(dimethylamino)pyrolidine-1-yl)piperidine-1-yl)-4-methoxyphenyl) acrylamide]", "Ba/F3 (NPH) Activity": "A (GI50 < 50 nM)"}, {"smiles": "C=CC(=O)Nc1cc(Nc2cc(N3OCC[C@@H]3c3cccc(C#N)c3)ncn2)c(OC)cc1N1CCC(O)CC1", "note": "[compound 390, N-(5-((6-((R)-3-(3-cyanophenyl)isoxazolidine-2-yl)pyrimidine-4-yl)amino)-2-(4-hydroxypiperidine-1-yl)-4-methoxyphenyl) acrylamide]", "Ba/F3 (NPH) Activity": "B (50 nM ≤ GI50 < 500 nM)"}, {"smiles": "C=CC(=O)Nc1cc(Nc2cc(N3OCC[C@@H]3c3ccc(F)cc3F)ncn2)c(OC)cc1N1CCC(N2CCN(C)CC2)CC1", "note": "[compound 352, N-(5-((6-((R)-3-(2,4-difluorophenyl)isoxazolidine-2-yl)pyrimidine-4-yl)amino)-4-methoxy-2-(4-(4-methylpiperazine-1-yl)piperidine-1-yl)phenyl) acrylamide]", "Ba/F3 (NPH) Activity": "A (GI50 < 50 nM)"}, {"smiles": "C=CC(=O)Nc1cc(Nc2cc(N3OCC[C@@H]3c3cc(F)cc(F)c3)ncn2)c(OC)cc1N1C[C@@H]2CCN(C)[C@@H]2C1", "note": "[compound 891, N-(5-((6-((R)-3-(3,5-difluorophenyl)isoxazolidine-2-yl)pyrimidine-4-yl)amino)-4-methoxy-2-((3aS,6aS)-1-methylhexahydropyrrolo [3,4-b]pyrrole-5(1H)-yl)phenyl) acrylamide]", "Ba/F3 (NPH) Activity": "A (GI50 < 50 nM)"}, {"smiles": "C=CC(=O)Nc1cc(Nc2cc(N3OCC[C@@H]3c3ccc(Cl)cc3F)ncn2)c(OC)cc1N1CCN(CC)CC1", "note": "[compound 401, N-(5-((6-((R)-3-(4-chloro-2-fluorophenyl)isoxazolidine-2-yl)pyrimidine-4-yl)amino)-2-(4-ethylpiperazine-1-yl)-4-methoxyphenyl) acrylamide]", "Ba/F3 (NPH) Activity": "A (GI50 < 50 nM)"}, {"smiles": "C=CC(=O)Nc1cc(Nc2cc(N3OCC[C@@H]3Cc3cccc(Cl)c3Cl)ncn2)c(OC)cc1N1CCC(N2CCN(C3CC3)[C@@H](C)C2)CC1", "note": "[compound 981, N-(2-(4-((S)-4-cyclopropyl-3-methylpiperazine-1-yl)piperidine-1-yl)-5-((6-((S)-3-(2,3-dichlorobenzyl)isoxazolidine-2-yl)pyrimidine-4-yl)amino)-4-methoxyphenyl) acrylamide]", "Ba/F3 (NPH) Activity": "A (GI50 < 50 nM)"}, {"smiles": "C=CC(=O)Nc1cc(Nc2cc(N3OCC[C@@H]3c3ccc(Cl)cc3F)ncn2)c(OC)cc1N1CCC(N2CCN(C(C)=O)CC2)CC1", "note": "[compound 375, N-(2-(4-(4-acetylpiperazine-1-yl)piperidine-1-yl)-5-((6-((R)-3-(4-chloro-2-fluorophenyl)isoxazolidine-2-yl)pyrimidine-4-yl)amino)-4-methoxyphenyl) acrylamide]", "Ba/F3 (NPH) Activity": "A (GI50 < 50 nM)"}, {"smiles": "C=CC(=O)Nc1cc(Nc2cc(N3OCC[C@@H]3c3ccc4ccccc4c3)ncn2)c(OC)cc1N1C[C@H](C)O[C@@H](C)C1", "note": "[compound 660, N-(2-((2S,6S)-2,6-dimethylmorpholino)-4-methoxy-5-((6-((R)-3-(naphthalene-2-yl)isoxazolidine-2-yl)pyrimidine-4-yl)amino)phenyl)acrylamide]", "Ba/F3 (NPH) Activity": "C (500 nM ≤ GI50 < 5000 nM)"}, {"smiles": "C=CC(=O)Nc1cc(Nc2cc(N3OCC[C@@H]3c3cc(F)cc(Cl)c3)ncn2)c(OC)cc1N1CCC(N2CCOCC2)CC1", "note": "[compound 589, N-(5-((6-((R)-3-(3-chloro-5-fluorophenyl)isoxazolidine-2-yl)pyrimidine-4-yl)amino)-4-methoxy-2-(4-morpholinopiperidine-1-yl)phenyl)acrylamide]", "Ba/F3 (NPH) Activity": "A (GI50 < 50 nM)"}, {"smiles": "C=CC(=O)Nc1cc(Nc2cc(N3OCC[C@@H]3c3cc(F)cc(F)c3)ncn2)c(OC)cc1N1CCC(N2CCN(C3CC3)C(C)(C)C2)CC1", "note": "[Example 106, N-(2-(4-(4-cyclopropyl-3,3-dimethylpiperazine-1-yl)piperidine-1-yl)-5-((6-((R)-3-(3,5-difluorophenyl)isoxazolidine-2-yl)pyrimidine-4-yl)amino)-4-methoxyphenyl) acrylamide]", "Ba/F3 (NPH) Activity": "A (GI50 < 50 nM)"}, {"smiles": "C=CC(=O)Nc1cc(Nc2cc(N3OCC[C@@H]3c3ccc(F)c(F)c3)ncn2)c(OC)cc1N1C2CC1CN(C)C2", "note": "[compound 542, N-(5-((6-((R)-3-(3,4-difluorophenyl)isoxazolidine-2-yl)pyrimidine-4-yl)amino)-4-methoxy-2-(3-methyl-3,6-diazabicyclo [3.1.1]heptane-6-yl)phenyl)acrylamide]", "Ba/F3 (NPH) Activity": "B (50 nM ≤ GI50 < 500 nM)"}, {"smiles": "C=CC(=O)Nc1cc(Nc2cc(N3OCC[C@@H]3c3cccc(Cl)c3Cl)ncn2)c(OC)cc1N1CCN(C2COC2)CC1", "note": "[compound 520, N-(5-((6-((R)-3-(2,3-dichlorophenyl)isoxazolidine-2-yl)pyrimidine-4-yl)amino)-4-methoxy-2-(4-(oxetane-3-yl)piperazine-1-yl)phenyl) acrylamide]", "Ba/F3 (NPH) Activity": "A (GI50 < 50 nM)"}, {"smiles": "C=CC(=O)Nc1cc(Nc2cc(N3OCC[C@@H]3c3cccc(Cl)c3Cl)ncn2)c(OC)cc1N1CCN(C(C)C)CC1", "note": "[compound 475, N-(5-((6-((R)-3-(2,3-dichlorophenyl)isoxazolidine-2-yl)pyrimidine-4-yl)amino)-2-(4-isopropylpiperazine-1-yl)-4-methoxyphenyl) acrylamide]", "Ba/F3 (NPH) Activity": "A (GI50 < 50 nM)"}, {"smiles": "C=CC(=O)Nc1cc(Nc2cc(N3OCC[C@@H]3c3ccc(C)nc3)ncn2)c(OC)cc1N1CCC(N2CCN(C)CC2)CC1", "note": "[Example 47, N-(4-methoxy-2-(4-(4-methylpiperazine-1-yl)piperidine-1-yl)-5-((6((R)-3-(6-methylpyridine-3-yl)isoxazolidine-2-yl)pyrimidine-4-yl)amino)phenyl) acrylamide]", "Ba/F3 (NPH) Activity": "B (50 nM ≤ GI50 < 500 nM)"}, {"smiles": "C=CC(=O)Nc1cc(Nc2cc(N3OCC[C@@H]3c3ccc(F)cc3F)ncn2)c(OC)cc1N1CCC(N2CCC(N3CCOCC3)CC2)CC1", "note": "[compound 426, N-(5-((6-((R)-3-(2,4-difluorophenyl)isoxazolidine-2-yl)pyrimidine-4-yl)amino)-4-methoxy-2-(4-morpholino-[1,4'-bipiperidine]-1'-yl)phenyl)acrylamide]", "Ba/F3 (NPH) Activity": "A (GI50 < 50 nM)"}, {"smiles": "C=CC(=O)Nc1cc(Nc2cc(N3OCC[C@@H]3c3cc(F)ccc3F)ncn2)c(OC)cc1N1CCOCC1", "note": "[compound 825, N-(5-((6-((R)-3-(2,5-difluorophenyl)isoxazolidine-2-yl)pyrimidine-4-yl)amino)-4-methoxy-2-morpholinophenyl) acrylamide]", "Ba/F3 (NPH) Activity": "A (GI50 < 50 nM)"}]}]}
